Patent US11020457B2, “Compositions and methods for protecting the kidney from ischemia reperfusion injury” (University of Virginia Patent Foundation, priority 2013, dated 2021)
Entries after “also recorded” stand apart in the source; their conditions may differ.

How the values were obtained:
[1] = Proteinuria (data not shown); assay type: in vivo
C57BL/6 mice [2] = test: Renal IRI in WT mice: serum iron (ELISA), tissue non-heme iron, liver and serum hepcidin; assay type: in vivo
Protocol: (§1) All experiments were performed in accordance with the National Institutes of Health and Institutional Animal Care and Use Guidelines. The Animal Care and Use Committee of the University of Virginia approved all procedures and protocols. C57BL/6 mice from the Jackson Laboratory and hepcidin knockout mice (HAMP−/−), a kind gift from Dr Cindy Roy (John Hopkins University) were used in this study. All experiments were performed on 8-10 weeks old male mice. Kidney ischemia-reperfusion surgery was performed as previously reported (44). The core temperature of the mice was maintained between 34° C. and 36° C. using a heating pad. After anesthetizing the mice (ketamine, 12 mg/ml; atropine, 0.48 mg/ml; xylazine, 24 mg/ml; […] mixture administered per 20 g body weight), bilateral flank incisions were made, both renal pedicles were exposed, and cross-clamped for 26 minutes (severe I/R injury) or 24 minutes (mild I/R injury). After the determined ischemia, clamps were removed, and kidneys were allowed to reperfuse for 24 hours. Ambient postoperative air temperature was maintained between 30° C. and 32° C. until mice had fully recovered. Sham-operated animals underwent bilateral flank incisions without clamping of renal pedicles. Twenty-four hours later, mice were euthanized, and tissues were harvested.
Animals were divided into three groups, injected intraperitoneally with water and underwent IRI (IRI), injected intraperitoneally with 50-100 μg hepcidin at different time points prior to IRI (Hepcidin-IRI) or were sham operated (Sham). The experimental design is depicted in FIG. 2a.
(§2) Serum iron (Abcam), hepcidin (Intrinsic Lifescience) and IL-6 levels (eBioscience) were measured using commercial ELISA kits, as per manufacturers instructions.
Non-heme iron content in tissue was measured using the method described in published literature with slight modifications (60). Briefly, tissues were accurately weighed, finely cut and placed for 20 hours at 65° C. in a solution of 3M HCl/0.61 M trichloroacetic acid. After cooling to room temperature, the acid extract was spun at 12,000 rpm to collect the supernatant. 0.1 mL of the supernatant was incubated with chromogen solution (1.86 mM bathophenanthroline sulfonate/143 mM thioglycollic acid) for 20 minutes, and OD was measured at 535 nm. A standard curve was generated using an iron standard solution (Ricca Iron AA standard) against water as the blank. Non-heme iron content (μg/g) was calculated using the equation described (60).
(§3) For RNA isolation, frozen tissues were re-suspended in RLT buffer (Qiagen Inc, Valencia, Calif.) and homogenized using TissueLyser system (Qiagen Inc, Valencia, Calif.). Total RNA from tissue homogenate was purified using RNAeasy mini kit (Qiagen Inc, Valencia, Calif.) following manufacturers instructions. 1 μg of RNA was used to synthesize cDNA using the iScript cDNA synthesis kit (Bio-Rad). The cDNA template was mixed with iTAQ SYBR green universal super mix (Bio-Rad) and quantitative PCR was carried out on CFX Connect system (Bio-Rad). Predesigned primers for Caspase-3 and Bcl-2 were purchased from Bio-rad. Glyceraldehyde-3-phosphate dehydrogenase (GAPDH) was amplified in parallel and used as the reference gene in quantification. Data is expressed as the relative gene expression and was calculated using the 2 (−ρρC(T)) method.

TKPTS cells = test: In-vitro hypoxia and re-oxygenation of TKPTS cells, Annexin V/PI flow cytometry; assay type: cell-based, mouse; conditions: 50 μM hepcidin for 24 hours, 1% hypoxia 6 hours, 6 hours re-oxygenation; p<0.005
Protocol: A mouse proximal tubule cell line (TKPTS cells, kindly provided by Dr. E. Bello-Reuss, University of Texas Medical Branch, Galveston, Tex.) was used in these studies. The cells were cultured in advanced DMEM/F12 medium supplemented with glutamine, 7.5% FBS and antibiotics. Cells were grown to 80% confluence and maintained at 37° C. in 5% CO2. All experiments were performed in serum free DMEM/F12 medium for a maximum of 24 hours.
TKPTS cells were subjected to hypoxia using a hypoxic chamber (Stemcell Technologies) for 6 hrs (5% CO2, 1% O2, and 94% N2) followed by re-oxygenation for 6 hrs (5% CO2, 21% 02, and 74% N2). Three culture conditions were set up: 1. Normoxia (which served as the base line control); 2. Hypoxia; and 3. Cells pretreated with 50 μM hepcidin and subjected to hypoxia. Experiments were carried out in serum free advanced DMEM/F12 medium. At the end of re-oxygenation, cells were stained with Annexin V/PI and extent of apoptosis was determined using flow cytometry.
To investigate if hepcidin has a direct anti-apoptotic effect on renal tubular epithelial cells, we subjected murine proximal renal tubular cells (TKPTS) to hypoxia-reoxygenation injury in vitro (34). TKPTS cells were first treated with or without 50 μM hepcidin for 24 hours in 5% serum containing medium. After transferring to serum free medium, the cells were then cultured in 1% hypoxia for 6 hours. […]

C57BL/6 mice [3] = test: Renal IRI in WT mice: IL-6 levels by ELISA; assay type: in vivo
Protocol: as §1, with “Twenty-four hours later, mice were euthanized, and tissues were harvested.” left out
as §2

[4] = system: hepcidin knockout mice (HAMP−/−); test: Mild renal IRI in HAMP-/- mice: plasma creatinine, histology, NGAL; assay type: in vivo; conditions: for plasma creatinine: HAMP-/- mice, single 50 μg bolus of hepcidin 24 hours before 24 min ischemia, 24 hours reperfusion, p<0.0007; for renal histology (H&E): hepcidin treated HAMP-/- IRI mice
Protocol: as §1
Renal function was determined by measurement of plasma creatinine, determined using a modified Jaffe colorimetric assay (44).
Kidneys were fixed in buffered formalin for 48 h, embedded in paraffin, sectioned (3-μm thickness), and stained with hematoxylin and eosin (H&E). The extent of acute tubular necrosis (ATN) following IRI was assessed using H&E stained kidney sections. An investigator blinded to the sample identities was used for these analyses to have an unbiased approach.
as §3
Given the significance of hepcidin-mediated ferroportin regulation in preventing renal IRI, we hypothesized that genetic hepcidin deficiency would aggravate IRI. […] There was no significant rise in plasma creatinine after mild IRI in the WT mice and sham operated HAMP^−/− mice (FIG. 6a). […] Renal histology further corroborated the deleterious effect of hepcidin deficiency in AKI. There were higher numbers of casts and necrotic tubules in the S1, S2 and S3 segments in HAMP^−/− kidneys after IRI (FIG. 6b, and Sup FIG. 3b). To investigate if hepcidin re-constitution could rescue HAMP^−/− mice from IRI, we injected these mice with a single 50 μg bolus of hepcidin, 24 hours before renal ischemia and sacrificed them 24 hours after reperfusion. Strikingly, a single injection of hepcidin afforded an almost complete protection against IRI in the HAMP^−/− mice.

Mouse hepcidin 25 (DTNFPICIFCCKCCNNSQCGICCKT; listed as Mus musculus)
proteinuria [1]: reducing proteinuria
liver hepcidin gene expression (C57BL/6 mice [2]; hepcidin before IRI, IRI Vs. Hepcidin-IRI p<0.005, FIG. 1e): significantly prevented the IRI-induced upregulation of hepcidin
liver non-heme iron levels (C57BL/6 mice [2]; hepcidin before IRI, vs IRI p<0.0001): effectively prevented IRI-induced depletion of liver non-heme iron
splenic non-heme iron content (C57BL/6 mice [2]; hepcidin before IRI, vs IRI p<0.001, vs sham p<0.05): significantly higher splenic non-heme iron content than IRI or sham groups
kidney non-heme iron content (C57BL/6 mice [2]; hepcidin before IRI, vs IRI, p<0.05, FIG. 1b): significantly prevented IRI-induced kidney iron accumulation
serum iron levels (C57BL/6 mice [2]; hepcidin i.p. before IRI, vs untreated IRI, p<0.001, FIG. 1a): significantly reduced IRI-induced increase in serum iron levels
serum hepcidin levels (C57BL/6 mice [2]; hepcidin-treated IRI vs sham, FIG. 1f): not significantly different between hepcidin-treated and sham groups
Annexin V/PI positive cells (apoptosis/necrosis) (TKPTS cells): significantly lower Annexin V/PI staining compared to untreated cells; also recorded: reduced to levels seen under normoxia
serum IL-6 levels (C57BL/6 mice [3]; WT-IRI Vs WT Hepcidin-IRI, p<0.007, FIG. 10a): prevented IRI-induced increase in IL-6 levels; also recorded: prevented by Hepcidin
splenic, renal, and systemic IL-6 levels (C57BL/6 mice [3]; hepcidin treatment, renal IRI (discussion)): significantly prevented IRI-induced increase in splenic, renal, and systemic IL-6 levels
kidney NGAL expression ([4]; HAMP-/- IRI Vs HAMP-/- Hepcidin-IRI, p<0.05): significantly lowered NGAL expression
plasma creatinine [4]: not significantly different than shams and WT mice
plasma creatinine ([4]; listed as hepcidin): significantly lower compared to untreated mice with levels comparable to that in sham-operated mice
renal histology (H&E) [4]: Hepcidin mediated protection of the kidney after IRI
renal histology (H&E) ([4]; listed as hepcidin): remarkable preservation of renal histology
